pIC50: −log10 of the molar value.

One data set addresses T1, IKZF3 (Homo sapiens, UniProt Q96SW2+Q9UKT9).
T1 construct: from tissue; host or cells: NCI-H929 MM xenograft tumours in female NOD SCID mice
The data set can be described thus: NCI-H929 xenograft pharmacodynamic and pharmacokinetic study (Example 40). The class given is in vivo, mice.

The test system of data set [1] is multiple myeloma cell lines. The experiment in a line: Anti-cancer activity in a panel of multiple myeloma cell lines. In kind it is cell-based. To be noted: eight of twelve were responsive, read-out: mean IC50 among responsive lines.
In data set [2] the test system is cutaneous T-cell lymphoma (CTCL) cell lines. The experiment in a line: Anti-cancer activity in CTCL cell lines. In kind it is cell-based. To be noted: three of four cell lines tested were responsive, read-out: mean IC50 among the responsive lines.
The test system of another data set is HuT 102. The data set can be described thus: Anti-proliferative activity, 96 hours. To be noted: HuT-102, 96 h.
The test system of a further data set is KMS-26. The experiment in a line: Anti-proliferative activity, 96 hours. The note with it: KMS-26, 96 h.
The target in the next data set is T2, IKZF1 (Mus musculus, UniProt Q03267).
T2 construct: from tissue; host or cells: peripheral blood cells (PBMC) of mice, ex vivo
T2 sequence (Q8C7D2 whole entry partner): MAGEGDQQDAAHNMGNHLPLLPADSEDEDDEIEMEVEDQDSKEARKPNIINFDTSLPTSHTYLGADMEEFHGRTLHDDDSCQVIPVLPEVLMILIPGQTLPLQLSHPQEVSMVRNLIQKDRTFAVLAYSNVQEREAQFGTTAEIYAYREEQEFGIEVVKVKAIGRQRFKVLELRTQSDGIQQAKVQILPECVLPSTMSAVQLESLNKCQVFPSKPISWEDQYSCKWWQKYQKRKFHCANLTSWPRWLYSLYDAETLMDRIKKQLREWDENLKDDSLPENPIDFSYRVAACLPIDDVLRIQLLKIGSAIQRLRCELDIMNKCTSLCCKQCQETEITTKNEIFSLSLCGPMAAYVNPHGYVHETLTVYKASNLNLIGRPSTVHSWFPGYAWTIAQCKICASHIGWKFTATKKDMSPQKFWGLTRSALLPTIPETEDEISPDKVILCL
T2 sequence (Q3U1J4 2-1140 partner limits assumed): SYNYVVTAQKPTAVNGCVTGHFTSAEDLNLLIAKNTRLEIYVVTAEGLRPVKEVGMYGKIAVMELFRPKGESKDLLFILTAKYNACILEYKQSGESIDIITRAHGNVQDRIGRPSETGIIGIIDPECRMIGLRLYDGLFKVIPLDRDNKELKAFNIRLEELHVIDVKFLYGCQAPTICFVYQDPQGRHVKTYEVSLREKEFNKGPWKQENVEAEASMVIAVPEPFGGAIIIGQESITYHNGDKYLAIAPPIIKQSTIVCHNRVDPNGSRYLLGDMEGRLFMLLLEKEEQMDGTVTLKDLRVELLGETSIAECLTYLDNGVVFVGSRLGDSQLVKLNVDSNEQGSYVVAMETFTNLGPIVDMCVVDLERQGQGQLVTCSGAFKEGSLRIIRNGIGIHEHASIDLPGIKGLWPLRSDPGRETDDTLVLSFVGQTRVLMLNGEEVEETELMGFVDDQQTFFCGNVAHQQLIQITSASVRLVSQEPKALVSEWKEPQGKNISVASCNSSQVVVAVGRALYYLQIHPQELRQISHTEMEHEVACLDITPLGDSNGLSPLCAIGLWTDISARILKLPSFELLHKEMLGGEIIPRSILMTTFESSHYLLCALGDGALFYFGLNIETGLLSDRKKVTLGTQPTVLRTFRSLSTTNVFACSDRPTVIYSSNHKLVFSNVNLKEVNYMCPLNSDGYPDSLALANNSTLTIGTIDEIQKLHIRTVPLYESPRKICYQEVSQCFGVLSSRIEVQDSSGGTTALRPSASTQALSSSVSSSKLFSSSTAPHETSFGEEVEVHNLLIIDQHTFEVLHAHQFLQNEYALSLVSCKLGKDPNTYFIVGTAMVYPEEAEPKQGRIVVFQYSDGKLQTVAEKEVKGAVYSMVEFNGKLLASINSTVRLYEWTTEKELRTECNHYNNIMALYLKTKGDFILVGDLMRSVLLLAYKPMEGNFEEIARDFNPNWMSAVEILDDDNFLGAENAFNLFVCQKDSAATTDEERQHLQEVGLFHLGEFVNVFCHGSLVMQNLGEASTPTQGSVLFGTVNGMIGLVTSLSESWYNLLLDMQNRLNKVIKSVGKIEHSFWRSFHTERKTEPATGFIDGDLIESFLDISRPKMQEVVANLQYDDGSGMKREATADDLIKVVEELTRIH
T2 sequence (Q03267 whole entry): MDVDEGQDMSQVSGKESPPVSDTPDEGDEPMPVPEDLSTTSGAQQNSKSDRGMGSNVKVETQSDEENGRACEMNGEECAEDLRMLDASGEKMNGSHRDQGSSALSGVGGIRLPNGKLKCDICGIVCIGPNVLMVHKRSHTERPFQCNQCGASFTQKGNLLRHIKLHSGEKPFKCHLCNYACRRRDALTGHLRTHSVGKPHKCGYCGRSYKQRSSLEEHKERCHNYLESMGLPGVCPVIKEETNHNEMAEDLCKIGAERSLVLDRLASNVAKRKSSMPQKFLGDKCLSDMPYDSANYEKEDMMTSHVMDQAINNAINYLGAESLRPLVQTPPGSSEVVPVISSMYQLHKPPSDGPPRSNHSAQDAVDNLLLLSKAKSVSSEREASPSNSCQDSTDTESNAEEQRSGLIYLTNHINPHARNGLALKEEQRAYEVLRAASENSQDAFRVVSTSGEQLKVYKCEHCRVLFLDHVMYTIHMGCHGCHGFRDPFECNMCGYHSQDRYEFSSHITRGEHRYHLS
The data set can be described thus: Ex vivo IKZF1 degradation in PBMC, mouse. The class given is cell-based. The note with it: mouse cells. On the procedure: (§1) IKZF1/3 are not degraded in mouse cells treated with thalidomide or its IMiD® analogs because of a single amino acid difference in mouse cereblon compared to human cereblon that causes steric hindrance and prevents recruitment of IKZF1/3. Ex vivo studies were performed in peripheral blood cells (PBMC) of mice, rats, dogs, and monkeys to identify relevant species for IND enabling-toxicity studies based on the degree of IKZF1 degradation by Compound 1. IKZF1 was not degraded in mouse or rat cells by Compound 1, thus, while rat could not be considered a pharmacologically relevant species for human risk assessment, it was chosen as the rodent species for toxicological studies because it is widely used in toxicity testing and a substantial historical toxicology database is available. […] Therefore, cynomolgus monkey was chosen for non-rodent toxicological studies.

Data set [3] deals with IMiD-resistant NCIH929 cells. The experiment in a line: Growth of IMiD-resistant NCIH929 cells (CellTiter-Glo).
Procedure: Briefly, test compound was added to 384-well plates at a top concentration of 10 μM with 14 points, half log titration in duplicates. NCIH929 cells were seeded into the 384-well plates in RPMI medium containing 10% FBS and 0.05 mM 2-mercaptoethanol at a cell density of 750 cells per well. Cells treated in the absence of the test compound were the negative control and cells treated in the absence of CellTiter-Glo® 2.0 were the positive control. Cells treated with the test compounds were incubated at 37° C. with 5% CO2 for 96 hr. CellTiter-Glo reagent was then added to the cells and luminescence was acquired on EnVision™ Multilabel Reader (PerkinElmer, Santa Clara, Calif., USA). % Viability was determined by normalizing the signal with positive and DMSO treated negative controls on the same microtiter plate.
A further data set deals with SU-DHL-5. The data set can be described thus: Anti-proliferative activity, 96 hours. The note with it: Homo sapiens, SU-DHL-5, 96 h.
In the next data set the test system is IKZF1/3. The data set can be described thus: Ex vivo IKZF1/3 degradation in PBMC, cynomolgus monkey. In kind it is cell-based. To be noted: cynomolgus monkey cells. On the procedure:
as §1

T1 sequence (Q9UKT9 whole entry): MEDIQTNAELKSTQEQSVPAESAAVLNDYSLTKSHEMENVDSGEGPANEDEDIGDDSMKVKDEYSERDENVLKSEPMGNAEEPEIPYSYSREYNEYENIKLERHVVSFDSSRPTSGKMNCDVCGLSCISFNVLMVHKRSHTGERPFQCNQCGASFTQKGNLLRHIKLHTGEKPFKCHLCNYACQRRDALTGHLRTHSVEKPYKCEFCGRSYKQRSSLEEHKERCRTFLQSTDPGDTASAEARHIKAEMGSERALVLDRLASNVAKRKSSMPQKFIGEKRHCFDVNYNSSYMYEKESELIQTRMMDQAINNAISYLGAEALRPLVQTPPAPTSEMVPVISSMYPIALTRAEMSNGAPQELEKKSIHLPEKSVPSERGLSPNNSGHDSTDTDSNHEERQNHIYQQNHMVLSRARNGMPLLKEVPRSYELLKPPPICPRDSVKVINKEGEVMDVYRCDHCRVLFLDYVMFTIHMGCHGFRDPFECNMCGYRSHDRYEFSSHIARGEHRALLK
T1 sequence (Q96SW2 whole entry): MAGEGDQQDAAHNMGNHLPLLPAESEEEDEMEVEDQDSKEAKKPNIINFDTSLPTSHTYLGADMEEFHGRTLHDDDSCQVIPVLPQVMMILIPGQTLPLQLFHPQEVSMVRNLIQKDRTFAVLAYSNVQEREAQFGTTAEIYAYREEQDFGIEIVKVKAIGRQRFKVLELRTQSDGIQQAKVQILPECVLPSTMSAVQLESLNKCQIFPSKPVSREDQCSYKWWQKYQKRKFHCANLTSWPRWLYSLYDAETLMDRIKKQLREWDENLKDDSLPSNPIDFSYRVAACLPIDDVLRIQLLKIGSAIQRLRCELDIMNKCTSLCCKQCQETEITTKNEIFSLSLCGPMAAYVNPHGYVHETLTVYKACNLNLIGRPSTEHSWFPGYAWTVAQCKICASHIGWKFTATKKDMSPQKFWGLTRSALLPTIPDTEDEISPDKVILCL
T1 sequence (Q16531 2-1140 partner limits assumed): as the sequence (Q3U1J4 2-1140 partner limits assumed) above, with G417N, G494A, S744T, A1019T counted along it
Procedure for IKZF3: A xenograft study was conducted in female NOD SCID mice bearing NCI-H929 MM tumors. Female SCID mice were inoculated subcutaneously in the right flank with 10×10^6 tumors cells in 0.2 mL of PBS supplemented with matrigel (PBS:matrigel=1:1). Tumor volume was measured twice weekly in two dimensions using calipers, and volume was calculated using the formula: (w2×l)/2=mm^3, assuming 1 mg is equivalent to 1 mm^3 of tumor volume.
For the pharmacodynamic and pharmacokinetic portion of this study 3 mice were sacrificed per time point with tumors and plasma harvested, with mice in the vehicle control group being sacrificed 24 post single dose. […] Tumors were then mechanically homogenized, and protein extracted using RIPA buffer (Sigma Aldrich). Protein concentration was quantified using a Pierce™ BCA Protein Assay Kit, samples were reduced, and equal protein amounts were then loaded onto a western blot gel for analysis. […] The intensity of individual bands was measured for data analysis using Image Studio NIR software. Protein expression was quantitated in relation to the reference protein, GAPDH, to control for total protein concentration. […] Data is represented as percent of target present in the vehicle control and normalized for total protein. […]

`O=C1CC[C@H](N2C(=O)c3cccc4c(Cc5ccc(CN6CCOCC6)cc5)ccc2c34)C(=O)N1` (single isomer, unassigned) [Compound 1]: on IKZF3 (NCI-H929 tumor model, single dose), the “time for the IKZF3 level to reach 50% of its pretreatment level” value is reported as “more than 48 hours”. Besides, on IKZF3 (dosed at a 10-fold lower dose than CC-92480), the “duration of plasma and tumor concentrations” value is “measurable plasma and tumor concentrations for longer than CC-92480”. Besides, the pIC50 in data set [1] is 9.52; in [2], 7.52; in the data set on HuT 102, 7.81; in the data set with KMS-26 it was 9.10; in data set [3] (Homo sapiens, NCI-H929, 96 h) it was 8.64; in the data set with SU-DHL-5, 8.20. Besides, on IKZF1, the IKZF1 degradation entry is on record as “not degraded”. The same molecule showed a maximal inhibition in data set [3] (96 hours) of 70%. Moreover, the “degrading IKZF1/3” value in the data set on IKZF1/3 is given as “highly effective”.

The values above are taken from patent publication US20230190760A1, “ADVANTAGEOUS THERAPIES FOR DISORDERS MEDIATED BY IKAROS OR AIOLOS” (C4 Therapeutics, Inc., priority 2020, published 2023).
